In patent publication US7625580B1, “Semi-interpenetrating or interpenetrating polymer networks for drug delivery and tissue engineering” (Massachusetts Institute of Technology, priority 2000, dated 2009):

Test system: bovine chondroycytes
Experiment: Biocompatibility of the photoinitiator, tested without polymer, on chondrocytes before and after UVA exposure
Assay type: cell-based
Settings: for cell damage (morphology) after light exposure: UVA 3 minutes at 1-3 mW/cm^2
Text: Although the initiator PHK is approved for dental applications, the initiator was examined without the presence of polymer to ascertain the toxicity of the radical produced to initiate a photopolymerization. The PEOD is very reactive towards the radical so the lack of polymer would make all radicals available to damage cells (a worst case scenario). Three initiator concentrations (0.1, 0.05 and 0.01% (w/w)) were examined.
Chondrocyte isolated from calf shoulders were maintained ex vivo in cell culture medium (DMEM) at 37° C. and 5% CO2. Cells were passaged approximately once a week. Approximately 10,000 cells per well in an 8-well tissue culture plate were seeded. 1-hydroxycylcohexyl-phenyl-ketone (HPK) was added to DMEM to reach 0.1, 0.05 and 0.01% (w/w) concentrations. The cells were incubated for 24 hours in the present of the initiator to examine possible acute cell toxicity. The cells were then exposed to UVA radiation (2 mW/cm^2) for 3 minutes to activate the photoactive initiator.
To determine the effect of photoactive initiator concentration on cells before exposure to light, cells were exposed to a concentration of 0% (w/w), 0.1% (w/w), 0.05% (w/w), and 0.01% (w/w).
The effect of photoactive initiator concentration on cells after exposure to light for four days was determined by exposing cells to a concentration of 0% (w/w), 0.1% (w/w), 0.05% (w/w), and 0.01% (w/w). The cells were compared morphologically and in relation to cell proliferation for 4 days.
Further analysis was made between controls which were a) not exposed to initiator or UVA, b) cells exposed to UVA only and c) cells exposed to UVA in the presence of 0.01% PHK. The effect of photoactive initiator on cells when exposed to no light or photoactive initiator, light only, 0.01% light and initiator, and 24 hours after light exposure was determined.

Structure (SMILES): O=C(c1ccccc1)C1(O)CCCCC1 [initiator, 1-hydroxycylcohexyl-phenyl-ketone]
- effect on proliferation and morphology (0.01% PHK with UVA versus no-treatment and UVA-only controls, 24 hours after light exposure): does not appear to alter proliferation and morphology
- toxicity to cells before exposure to light (0.1, 0.05 and 0.01% (w/w), 24 hours incubation, no light): does not appear to be toxic
- cell damage (morphology) after light exposure (initiator 0.01% versus control): no damage
- cell damage (morphology) after light exposure (initiator 0.05%): Variable damage
- cell damage (morphology) after light exposure (initiator 0.1%): extensive cell death
